Assay results as given in US7939513B2, “Tetracycline derivatives as antibacterial agents” (Dr. Reddy's Laboratories Limited, priority 2007, dated 2011).
Converted amounts (≈) assume the structure as drawn. Structures can show the parent of a compound that is named as a salt. Where two headings read alike, the source gives them in different places.

Assays:
[1] = system: E. faecalis DRCC 034 VSE ATCC 29212; assay: In vitro MIC by broth microdilution; format: cell-based; settings: Enterococcus faecalis, ATCC29212
Method: (§1) Minimum Inhibition Concentrations (MICs) were determined by broth microdilution technique as per the guidelines prescribed in the fifth edition of Approved Standards NCCLS document M7-A5 Vol 20-No 2, 2000 Villinova, Pa. (Currently Clinical and Laboratory Standards Institute (CLSI)). Initial stock solution of the compound of formula (I) was prepared in DMSO. Subsequent two fold dilutions were carried out in sterile Cation adjusted Muller Hinton Broth (Difco) (MHB). Frozen cultures stocks were inoculated in 25 ml sterile MHB in 50 ml Erlyn Meyer flasks.
(§2) Composition of MHB is as follows: Beef Extract Powder—2.0 grams/litre, Acid Digest of Casein—17.5 grams/litre, Soluble Starch—1.5 grams/litre, Final pH 7.3±0.1
(§3) Flasks were incubated for 4 to 5 hours at 36±1° C. on a rotary shaker at 110 rpm. Inoculum was prepared by diluting the culture in sterile MHB to obtain a turbidity of 0.5 McFarland standard. This corresponds to 1−2×10^8 CFU/mL. The stock was further diluted to achieve a final inoculum density of 5×10^4 to 1×10^5 CFU/well. The plates were incubated 18 to 20 hours at 37° C.

[2] = system: E. coli DRCC 018 ATCC 25922; assay: In vitro MIC by broth microdilution; format: cell-based; settings: Escherichia coli, ATCC25922
Method: as §1, §2, §3

[3] = system: E. faecium DRCC 154 VRE NCTC 12202; assay: In vitro MIC by broth microdilution; format: cell-based; settings: Enterococcus faecium
Method: as §1, §2, §3

[4] = system: S. aureus DRCC 019 MRSA ATCC 33591; assay: In vitro MIC by broth microdilution; format: cell-based; settings: Staphylococcus aureus
Method: as §1, §2, §3

[5] = system: K. pn DRCC 575 ATCC 700603; assay: In vitro MIC by broth microdilution; format: cell-based; settings: Klebsiella pneumoniae, ATCC700603
Method: as §1, §2, §3

[6] = system: S. aureus DRCC 035 MSSA ATCC 29213; assay: In vitro MIC by broth microdilution; format: cell-based; settings: Staphylococcus aureus
Method: as §1, §2, §3

[7] = system: P. aeru DRCC 024 ATCC 27853; assay: In vitro MIC by broth microdilution; format: cell-based; settings: Pseudomonas aeruginosa, ATCC27853
Method: as §1, §2, §3

[8] = system: E. faecalis DRCC 153 VRE NCTC 12201; assay: In vitro MIC by broth microdilution; format: cell-based; settings: Enterococcus faecalis
Method: as §1, §2, §3

E. Coli ATCC 25992 = assay: ED50 in murine systemic infection model; format: in vivo; settings: Escherichia coli, 120 h, Swiss Albino Mice, survival 5 days
Method: (§4) Animals: Specific pathogen free outbred, female and male Swiss Albino Mice, 4-6 weeks old, weighing 25±2 grams.
(§5) Inoculum Preparation: • Systemic infection model is performed based on LD50 of an organism. 10-1000×LD50 or 1-5 MLD (minimum lethal dose) is used as an infecting inoculum. • Organisms are sub-cultured on blood agar plates and incubated at 35-37° C. for 18-24 hours. Inoculum is prepared in 0.9% normal saline and optical density adjusted at 560 nm to yield an inoculum density of 10^5 to 10^9CFU/mL based on the test organism. • Adjusted inoculum is further diluted 1:1 in mucin solution to achieve a final mucin concentration of 5-7.5% (wt/vol). • Log CFUs of inoculum is determined by serially diluting the inoculum in normal saline and plating on suitable agar plates. Plates are incubated at 35-37° C. for 18-24 hours and counts determined.
(§6) Infection: • Animals are infected with 0.5 ml of inoculum by intra-peritoneal route. • Two groups of mice left untreated, serve as untreated control.
(§7) Treatment: • For single dose, compound of formula (I) is administered at 0 to 3 hour post-infection by p.o./s.c./i.v. route. • For b.i.d., compound of formula (I) administered at 0 to 3 hour post-infection for first dose and at 4 to 6 hours post-infection for second dose by p.o./s.c./i.v. route.
(§8) End point: Survival/death in each treated and untreated groups are monitored for 5 days (7 days for S. pneumoniae). The ED50 values are determined by probit analysis.

MRSA DRCC 446 = assay: ED50 in murine systemic infection model; format: in vivo; settings: Staphylococcus aureus, 120 h, Swiss Albino Mice, survival 5 days
Method: as §4, §5, §6, §7, §8

[9] = system: S. aureus DRCC 035 (ATCC 29213); assay: ED50 in murine systemic infection model; format: in vivo; settings: Staphylococcus aureus, 120 h, Swiss Albino Mice, survival 5 days
Method: as §4, §5, §6, §7, §8

E faecalis DRCC 543 = assay: ED50 in murine systemic infection model; format: in vivo; settings: Enterococcus faecalis, 120 h, Swiss Albino Mice, survival 5 days
Method: as §4, §5, §6, §7, §8

S. pneumoniae ATCC 49619 = assay: ED50 in murine systemic infection model; format: in vivo; settings: Streptococcus pneumoniae, 168 h, Swiss Albino Mice, survival 7 days
Method: as §4, §5, §6, §7, §8

[10] = E. faecalis DRCC 034, VSE, ATCC 29212, read-out: MIC
[11] = E. coli DRCC 018, ATCC 25922, read-out: MIC
[12] = E. faecium DRCC 154, VRE, NCTC 12202, read-out: MIC
[13] = S. aureus DRCC 019, MRSA, ATCC 33591, read-out: MIC
[14] = K. pn DRCC 575, ATCC 700603, read-out: MIC
[15] = S. aureus DRCC 035, MSSA, ATCC 29213, read-out: MIC
[16] = P. aeru DRCC 024, ATCC 27853, read-out: MIC
[17] = E. faecalis DRCC 153, VRE, NCTC 12201, read-out: MIC

| MIC [1, 10] [µg/mL] | MIC [2, 11] [µg/mL] | MIC [3, 12] [µg/mL] | MIC [4, 13] [µg/mL] | MIC [5, 14] [µg/mL] | MIC [6, 15] [µg/mL] | MIC [7, 16] [µg/mL] | MIC [8, 17] [µg/mL] | SMILES | other results |
| --- | --- | --- | --- | --- | --- | --- | --- | --- | --- |
| 0.03 (≈ 0.0514 µM) | 0.12 (≈ 0.206 µM) | 0.01 (≈ 0.0171 µM) | 0.25 (≈ 0.428 µM) | 8 (≈ 13.7 µM) | 0.12 (≈ 0.206 µM) | 16 (≈ 27.4 µM) | 0.03 (≈ 0.0514 µM) | CN(C)c1cc(NC(=O)[C@@H]2CCCN2C)c(O)c2c1C[C@H]1C[C@H]3[C@H](N(C)C)C(O)=C(C(N)=O)C(=O)[C@@]3(O)C(O)=C1C2=O [Example 2, (S)—N-((5aR,6aS,7S,10aS)-9-carbamoyl-4,7-bis(dimethylamino)-1,8,10a,11-tetrahydroxy-10,12-dioxo-5,5a,6,6a,7,10,10a,12-octahydrotetracen-2-yl)-1-methylpyrrolidine-2-carboxamide] | ED50 (E. Coli ATCC 25992; ATCC25992, iv, E. Coli ATCC 25992, i.v.-q.d.): 0.5 mg/kg; ED50 (E. Coli ATCC 25992; ATCC25992, po, E. Coli ATCC 25992, p.o.-b.i.d.): 12.6 mg/kg; ED50 (MRSA DRCC 446; iv, MRSA DRCC 446, i.v.-q.d.): 0.77 mg/kg; ED50 (MRSA DRCC 446; po, MRSA DRCC 446, p.o.-b.i.d.): 7.3 mg/kg; ED50 ([9]; ATCC29213, iv, i.v.-q.d.): 0.6 mg/kg; ED50 ([9]; ATCC29213, po, p.o.-b.i.d.): 5.5 mg/kg; ED50 (E faecalis DRCC 543; DRCC543, iv, E faecalis DRCC 543, i.v.-q.d.): 0.28 mg/kg; ED50 (E faecalis DRCC 543; DRCC543, po, E faecalis DRCC 543, p.o.-b.i.d.): 2.53 mg/kg; ED50 (S. pneumoniae ATCC 49619; ATCC49619, iv, S. pneumoniae ATCC 49619, i.v.-q.d.): 0.16 mg/kg; ED50 (S. pneumoniae ATCC 49619; ATCC49619, po, S. pneumoniae ATCC 49619, p.o.-b.i.d.): 6.2 mg/kg |
| 0.12 (≈ 0.201 µM) | 0.5 (≈ 0.837 µM) | 0.06 (≈ 0.1 µM) | 0.5 (≈ 0.837 µM) | 16 (≈ 26.8 µM) | 0.5 (≈ 0.837 µM) | > 32 | 0.12 (≈ 0.201 µM) | CCN1CCC[C@H]1C(=O)Nc1cc(N(C)C)c2c(c1O)C(=O)C1=C(O)[C@]3(O)C(=O)C(C(N)=O)=C(O)[C@@H](N(C)C)[C@@H]3C[C@@H]1C2 [Example 3, (S)—N-((5aR,6aS,7S,10aS)-9-carbamoyl-4,7-bis(dimethylamino)-1,8,10a,11-tetrahydroxy-10,12-dioxo-5,5a,6,6a,7,10,10a,12-octahydrotetracen-2-yl)-1-ethylpyrrolidine-2-carboxamide] | – |
| 0.25 (≈ 0.409 µM) | 2 (≈ 3.27 µM) | 0.12 (≈ 0.196 µM) | 1 (≈ 1.63 µM) | > 32 | 1 (≈ 1.63 µM) | > 32 | 0.5 (≈ 0.817 µM) | CCCN1CCC[C@H]1C(=O)Nc1cc(N(C)C)c2c(c1O)C(=O)C1=C(O)[C@]3(O)C(=O)C(C(N)=O)=C(O)[C@@H](N(C)C)[C@@H]3C[C@@H]1C2 [Example 4, (S)—N-((5aR,6aS,7S,10aS)-9-carbamoyl-4,7-bis(dimethylamino)-1,8,10a,11-tetrahydroxy-10,12-dioxo-5,5a,6,6a,7,10,10a,12-octahydrotetracen-2-yl)-1-propylpyrrolidine-2-carboxamide] | – |
| – | – | – | – | – | – | – | – | CC(C)CN1CCC[C@H]1C(=O)Nc1cc(N(C)C)c2c(c1O)C(=O)C1=C(O)[C@]3(O)C(=O)C(C(N)=O)=C(O)[C@@H](N(C)C)[C@@H]3C[C@@H]1C2 [Example 7, (S)—N-((5aR,6aS,7S,10aS)-9-carbamoyl-4,7-bis(dimethylamino)-1,8,10a,11-tetrahydroxy-10,12-dioxo-5,5a,6,6a,7,10,10a,12-octahydrotetracen-2-yl)-1-isobutylpyrrolidine-2-carboxamide dihydrochloride] | MIC [1]: 0.5 µg/mL; MIC [2]: 4 µg/mL; MIC [3]: 0.5 µg/mL; MIC [4]: 2 µg/mL; MIC [5]: 128 µg/mL; MIC [6]: 2 µg/mL; MIC [7]: 64 µg/mL; MIC [8]: 1 µg/mL |
